Results taken from paper PMC6642116, “Structural and functional analyses of hepatitis B virus X protein BH3-like domain and Bcl-xL interaction” (Nature Communications, 2019).

Test system: HBV replication from pHBV1.3-Xnull replicon in HepG2 cells
Test: HBV production rescue assay, PEP-1 delivered peptides
Assay type: cell-based
Conditions: HepG2 + pHBV1.3-Xnull, peptide/PEP-1, 48 h
Source text: Fig. 3 The HBx-BH3-like domain is critical for HBV production in HepG2 cells. a–e C-terminal biotinylated HBx-aa113–135 peptides (both wild-type (WT) and the W120A/L123A double mutant) were delivered into HepG2 cells transfected with pHBV1.3-Xnull using PEP-1 nanoparticles (Methods) and analyzed by streptavidin-FITC (fluorescein isothiocyanate) for transfection efficiency (a). Scale bar is 50 μm. An unrelated 23-aa peptide was used as a control (Control). The intracellular expression levels of HBV core antigen (HBcAg (b) and the levels of HBV e-antigen (HBeAg) (c), HBV S-antigen (HBsAg) (d), and HBV DNA (e) in the culture medium collected from HepG2 cells were measured (Methods). The results are shown as fold change to the WT HBx-aa113–135 peptide (WT). f–i) HepG2 cells were co-transfected with pHBV1.3-Xnull and pTT22m-HBx-WT (WT), pHBV1.3-Xnull and pTT22m-HBx(W120A/L123A), or pHBV1.3-Xnull and the pTT22m vector control (Control). Intracellular expression levels of HBcAg (f) and the levels of HBeAg (g), HBsAg (h), and HBV DNA (i) in the culture medium from HepG2 cells were measured similarly. The results are shown as fold change to the combination of pHBV1.3-Xnull and pTT22m-HBx-WT (WT). Data shown represent mean ± SD. Significance is indicated on the top. **P < 0.01, ***P < 0.001, ****P < 0.0001; two-tailed unpaired t tests (n = 3 biologically independent samples). Source data are provided as a Source Data file
HepG2 cells were grown in Dulbecco’s modified Eagle’s medium (DMEM) with 10% Gibco fetal bovine serum. C-terminal biotinylated-labeled HBx peptides were transfected into HepG2 cells by pep-1[16], a peptide carrier for the delivery of biologically active proteins into mammalian cells. HBx peptides and pep-1 were firstly dissolved in DMEM to 1 mg/ml, then adjusted to 500 µl DMEM to a final concentration of 100 µg/ml, and incubated at 37 °C for 30 min in the tube. The incubated peptide mixture was added into pre-seeded HepG2 cells in a 24-well plate and incubated for another 30 min, and then washed five times by phosphate-buffered saline (PBS) to remove the free peptides. The transfected C-terminal biotinylated HBx peptides were detected by using streptavidin-FITC (fluorescein isothiocyanate) equipment (Thermo Fisher Scientific) following the standard immunostaining methods.
Transfection of plasmids into HepG2 cells was carried out using X-tremeGENE HP DNA Transfection Reagent (Roche), following the manufacturer’s protocol. A transfection efficiency of 20–30% could be achieved. Cells were pre-seeded 24 h before transfections. pHBV1.3-HBx-null plasmid was transfected into HepG2 cells for 6 h, then HBx-aa113–135, HBx-aa113–135-(W120A, L123A), or control peptide was transfected by pep-1 carrier and incubated for additional 48 h without the removal of peptides. The culture media of the HepG2 cells were harvest for analysis.
The levels of HBsAg, HBeAg, and HBcAg expression were measured by chemiluminescence, using Commercial Assay Kit (Wantai, Beijing, China). Northern blot analysis of HBV RNA, Southern blot analysis of HBV DNA, and real-time PCR quantification of HBV DNA are described in the Supplementary Methods.

## SSTTSTGPCKTCTTPAQGTSMFP-K-biotin [Control, equal-length unrelated control biotin-labeled peptide]
Replicate 1
  HBcAg in cells: 0.472 fold-change to WT
  HBeAg in culture medium: 0.329 fold-change to WT
  HBsAg in culture medium: 0.215 fold-change to WT
  Secreted HBV DNA: 990600 Copies/mL
Replicate 2
  HBcAg in cells: 0.663 fold-change to WT
  HBeAg in culture medium: 0.389 fold-change to WT
  HBsAg in culture medium: 0.227 fold-change to WT
  Secreted HBV DNA: 564700 Copies/mL
Replicate 3
  HBcAg in cells: 0.512 fold-change to WT
  HBeAg in culture medium: 0.344 fold-change to WT
  HBsAg in culture medium: 0.207 fold-change to WT
  Secreted HBV DNA: 887700 Copies/mL
